{
  "source": "patent US11986480B2",
  "about": "“Heterocyclic compound” (TOHOKU UNIVERSITY, priority 2017, dated 2024)",
  "note": "Where a name gives a salt, the structure may show the parent alone.",
  "data": [
    {"system": "EmGFP-HaloTag", "experiment": "Test Example 1: HeLa cells stably expressing EmGFP-HaloTag, Western blot GFP/actin (Testing Method A)", "type": "cell-based", "details": "1 uM, 24 hours, 1 or less = degradation promoted", "protocol": "(§1) Test Example 1: Evaluation Method Using Cell Stably Expressing EmGFP-HaloTag (Testing Method A)\n(§2) HeLa cells stably expressing EmGFP-HaloTag were inoculated to Dulbecco's Modified Eagle Medium (DMEM) and cultured for 24 hours. Then, a test compound (specifically, compounds of Examples 1 to 7, 9 to 11, 13 to 15, 17 to 20, 24 to 27, 29, 32 to 33, 36 to 42, 44 to 46 and 56) was added thereto at the final concentration shown in Table 2, followed by incubation for 24 hours under conditions of 37° C./5% CO2. The cells were washed with PBS three times and treated with a cell lysis solution containing a proteolytic enzyme inhibitor to obtain a cell extract. The cell extract was subjected to SDS-PAGE. After the electrophoresis, GFP and actin were detected by Western blot. The ratio of the GFP/actin value of the drug-treated cells to the GFP/actin value of a control group in drug-untreated cells was regarded as an activity value. A value of 1 or less represents that degradation of EmGFP-HaloTag was promoted.", "values": [
      {"smiles": "Nc1nc2c(nc(-c3cn(CCOCCOCCOCCOCCOCCCCCCCl)nn3)n2Cc2ccc(F)cc2)c(=O)[nH]1", "note": "[Example 15, 2-Amino-8-(1-(21-chloro-3,6,9,12,15-pentaoxahenicos-1-yl)-1H-1,2,3-triazol-4-yl)-9-(4-fluorobenzyl)-1,9-dihydro-6H-purin-6-one]", "Activity value (GFP/actin of drug-treated cells relative to drug-untreated control)": 0.9},
      {"smiles": "CC(=O)N[C@@H](CSc1nc2c(=O)[nH]c(N)nc2n1Cc1ccc(S(C)(=O)=O)cc1)C(=O)NCCOCCOCCOCCOCCOCCCCCCCl", "note": "[Example 39, N^2-acetyl-S-(2-amino-9-(4-(methylsulfonyl)benzyl)-6-oxo-6,9-dihydro-1H-purin-8-yl)-N-(21-chloro-3,6,9,12,15-pentaoxahenicos-1-yl)-L-cysteinamide]", "Activity value (GFP/actin of drug-treated cells relative to drug-untreated control)": 0.7},
      {"smiles": "CC(=O)N[C@@H](CSc1nc2c(=O)[nH]cnc2n1Cc1ccc(F)cc1)C(=O)NCCOCCOCCOCCOCCOCCCCCCCl", "note": "[Example 26, N^2-Acetyl-N-(21-chloro-3,6,9,12,15-pentaoxahenicos-1-yl)-S-(9-(4-fluorobenzyl)-6-oxo-6,9-dihydro-1H-purin-8-yl)-L-cysteinamide]", "Activity value (GFP/actin of drug-treated cells relative to drug-untreated control)": 0.5},
      {"smiles": "Nc1nc2c(nc(-c3cnn(CCOCCOCCOCCOCCOCCCCCCCl)c3)n2Cc2ccc(F)cc2)c(=O)[nH]1", "note": "[Example 14, 2-amino-8-(1-(21-chloro-3,6,9,12,15-pentaoxahenicos-1-yl)-1H-pyrazol-4-yl)-9-(4-fluorobenzyl)-1,9-dihydro-6H-purin-6-one]", "Activity value (GFP/actin of drug-treated cells relative to drug-untreated control)": 0.2},
      {"smiles": "CC(=O)N[C@@H](CSc1nc2cncnc2n1Cc1ccc(F)cc1)C(=O)NCCOCCOCCOCCOCCOCCCCCCCl", "note": "[Example 18, N^2-Acetyl-N-(21-chloro-3,6,9,12,15-pentaoxahenicos-1-yl)-S-(9-(4-fluorobenzyl)-9H-purin-8-yl)-L-cysteinamide]", "Activity value (GFP/actin of drug-treated cells relative to drug-untreated control)": 0.1},
      {"smiles": "CC(=O)N[C@@H](CSc1nc2c(=O)[nH]c(N)nc2n1Cc1cccnc1)C(=O)NCCOCCOCCOCCOCCOCCCCCCCl", "note": "[Example 41, N^2-acetyl-S-(2-amino-6-oxo-9-(pyridin-3-ylmethyl)-6,9-dihydro-1H-purin-8-yl)-N-(21-chloro-3,6,9,12,15-pentaoxahenicos-1-yl)-L-cysteinamide trifluoroacetic acid salt]", "Activity value (GFP/actin of drug-treated cells relative to drug-untreated control)": 0.5},
      {"smiles": "CC(=O)N[C@@H](CSc1nc2c(=O)[nH]c(N)nc2n1Cc1cncs1)C(=O)NCCOCCOCCOCCOCCOCCCCCCCl", "note": "[Example 42, N^2-acetyl-S-(2-amino-6-oxo-9-(1,3-thiazole-5-ylmethyl)-6,9-dihydro-1H-purin-8-yl)-N-(21-chloro-3,6,9,12,15-pentaoxahenicos-1-yl)-L-cysteinamide]", "Activity value (GFP/actin of drug-treated cells relative to drug-untreated control)": 0.8},
      {"smiles": "CC(=O)N[C@@H](CSc1nc2c(=O)[nH]c(N)nc2n1Cc1ccccc1Cl)C(=O)NCCOCCOCCOCCOCCOCCCCCCCl", "note": "[Example 24, N^2-acetyl-S-(2-amino-9-(2-chlorobenzyl)-6-oxo-6,9-dihydro-1H-purin-8-yl)-N-(21-chloro-3,6,9,12,15-pentaoxahenicos-1-yl)-L-cysteinamide]", "Activity value (GFP/actin of drug-treated cells relative to drug-untreated control)": 0.5},
      {"smiles": "CC(=O)N[C@@H](CSc1nc2c(N)ncnc2n1Cc1ccc(F)cc1)C(=O)NCCOCCOCCOCCOCCOCCCCCCCl", "note": "[Example 17, N^2-Acetyl-S-(6-amino-9-(4-fluorobenzyl)-9H-purin-8-yl)-N-(21-chloro-3,6,9,12,15-pentaoxahenicos-1-yl)-L-cysteinamide trifluoroacetate]", "Activity value (GFP/actin of drug-treated cells relative to drug-untreated control)": 0.7},
      {"smiles": "Nc1nc2c(nc(-c3cccc(OCCOCCOCCOCCOCCOCCCCCCCl)c3)n2Cc2ccc(F)cc2)c(=O)[nH]1", "note": "[Example 10]", "Activity value (GFP/actin of drug-treated cells relative to drug-untreated control)": 0.3},
      {"smiles": "Nc1nc2c(nc(/C=C/C(=O)NCCOCCOCCOCCOCCOCCCCCCCl)n2Cc2ccc(F)cc2)c(=O)[nH]1", "note": "[Example 5, (2E)-3-(2-Amino-9-(4-fluorobenzyl)-6-oxo-6,9-dihydro-1H-purin-8-yl)-N-(21-chloro-3,6,9,12,15-pentaoxahenicos-1-yl)acrylamide]", "Activity value (GFP/actin of drug-treated cells relative to drug-untreated control)": 0.3},
      {"smiles": "CC(=O)N[C@@H](CSc1nc2c(=O)[nH]c(N)nc2n1-c1ccccc1)C(=O)NCCOCCOCCOCCOCCOCCCCCCCl", "note": "[Example 40, N^2-acetyl-S-(2-amino-6-oxo-9-phenyl-6,9-dihydro-1H-purin-8-yl)-N-(21-chloro-3,6,9,12,15-pentaoxahenicos-1-yl)-L-cysteinamide]", "Activity value (GFP/actin of drug-treated cells relative to drug-untreated control)": 0.7},
      {"smiles": "Nc1nc2c(nc(C(=O)NCCOCCOCCOCCOCCOCCCCCCCl)n2Cc2ccc(F)cc2)c(=O)[nH]1", "note": "[Example 33, 2-Amino-N-(21-chloro-3,6,9,12,15-pentaoxahenicos-1-yl)-9-(4-fluorobenzyl)-6-oxo-6,9-dihydro-1H-purine-8-carboxamide]", "Activity value (GFP/actin of drug-treated cells relative to drug-untreated control)": 0.9}
    ]},
    {"system": "EmGFP-HaloTag", "experiment": "Test Example 1: HeLa cells stably expressing EmGFP-HaloTag, Western blot GFP/actin (Testing Method A)", "type": "cell-based", "details": "5 uM, 24 hours, 1 or less = degradation promoted", "protocol": "as §1, §2", "values": [
      {"smiles": "Nc1nc2c(nc(SCC(=O)NCCOCCOCCOCCOCCOCCCCCCCl)n2Cc2ccc(F)cc2)c(=O)[nH]1", "note": "[Example 7]", "Activity value (GFP/actin of drug-treated cells relative to drug-untreated control)": 0.79},
      {"smiles": "Nc1nc2c(nc(NCC(=O)NCCOCCOCCOCCOCCOCCCCCCCl)n2Cc2ccc(F)cc2)c(=O)[nH]1", "note": "[Example 9, N^2-(2-amino-9-(4-fluorobenzyl)-6-oxo-6,9-dihydro-1H-purin-8-yl)-N-(21-chloro-3,6,9,12,15-pentaoxahenicos-1-yl)glycinamide]", "Activity value (GFP/actin of drug-treated cells relative to drug-untreated control)": 0.47}
    ]},
    {"system": "EmGFP-HaloTag", "experiment": "Test Example 1: HeLa cells stably expressing EmGFP-HaloTag, Western blot GFP/actin (Testing Method A)", "type": "cell-based", "details": "10 uM, 24 hours, 1 or less = degradation promoted", "protocol": "as §1, §2", "values": [
      {"smiles": "Nc1nc2c(nc(SCCC(=O)NCCOCCOCCOCCOCCOCCCCCCCl)n2Cc2ccc(F)cc2)c(=O)[nH]1", "note": "[Example 2]", "Activity value (GFP/actin of drug-treated cells relative to drug-untreated control)": 0.9},
      {"smiles": "CC(=O)N[C@@H](CSc1nc2c(=O)[nH]c(N)nc2n1Cc1ccc(Cl)cc1)C(=O)NCCOCCOCCOCCOCCOCCCCCCCl", "note": "[Example 1, N^2-Acetyl-S-(2-amino-9-(4-chlorobenzyl)-6-oxo-6,9-dihydro-1H-purin-8-yl)-N-(21-chloro-3,6,9,12,15-pentaoxahenicos-1-yl)-L-cysteinamide]", "Activity value (GFP/actin of drug-treated cells relative to drug-untreated control)": 0.7},
      {"smiles": "CC(=O)N[C@@H](CSc1nc2c(=O)[nH]c(N)nc2n1Cc1ccccc1)C(=O)NCCOCCOCCOCCOCCOCCCCCCCl", "note": "[Example 20, N^2-Acetyl-S-(2-amino-9-benzyl-6-oxo-6,9-dihydro-1H-purin-8-yl)-N-(21-chloro-3,6,9,12,15-pentaoxahenicos-1-yl)-L-cysteinamide Trifluoroacetate]", "Activity value (GFP/actin of drug-treated cells relative to drug-untreated control)": 0.2},
      {"smiles": "CC(=O)N[C@@H](CSc1c(NCc2ccc(F)cc2)nc(N)[nH]c1=O)C(=O)NCCOCCOCCOCCOCCOCCCCCCCl", "note": "[Example 19, N^2-Acetyl-S-(2-amino-4-((4-fluorobenzyl)amino)-6-oxo-1,6-dihydropyrimidin-5-yl)-N-(21-chloro-3,6,9,12,15-pentaoxahenicos-1-yl)-L-cysteinamide Trifluoroacetate]", "Activity value (GFP/actin of drug-treated cells relative to drug-untreated control)": 0.5},
      {"smiles": "Nc1nc2c(nc(CCC(=O)NCCOCCOCCOCCOCCOCCCCCCCl)n2Cc2ccc(F)cc2)c(=O)[nH]1", "note": "[Example 6, 3-(2-Amino-9-(4-fluorobenzyl)-6-oxo-6,9-dihydro-1H-purin-8-yl)-N-(21-chloro-3,6,9,12,15-pentaoxahenicos-1-yl)propanamide]", "Activity value (GFP/actin of drug-treated cells relative to drug-untreated control)": 0.94},
      {"smiles": "Nc1nc2c(nc(-c3ccc(OCCOCCOCCOCCOCCOCCCCCCCl)cc3)n2Cc2ccc(F)cc2)c(=O)[nH]1", "note": "[Example 11, 2-amino-8-(4-((21-chloro-3,6,9,12,15-pentaoxahenicos-1-yl)oxy)phenyl)-9-(4-fluorobenzyl)-1,9-dihydro-6H-purin-6-enea]", "Activity value (GFP/actin of drug-treated cells relative to drug-untreated control)": 0.7}
    ]},
    {"system": "EmGFP-HaloTag", "experiment": "Test Example 1: HeLa cells stably expressing EmGFP-HaloTag, Western blot GFP/actin (Testing Method A)", "type": "cell-based", "details": "100 uM, 24 hours, 1 or less = degradation promoted", "protocol": "as §1, §2", "values": [
      {"smiles": "CC(=O)N[C@@H](CSc1nc2c(=O)[nH]c(N)nc2n1CC1CCOCC1)C(=O)NCCOCCOCCOCCOCCOCCCCCCCl", "note": "[Example 29, N^2-acetyl-S-(2-amino-6-oxo-9-(tetrahydro-2H-pyran-4-ylmethyl)-6,9-dihydro-1H-purin-8-yl)-N-(21-chloro-3,6,9,12,15-pentaoxahenicos-1-yl)-L-cysteinamide]", "Activity value (GFP/actin of drug-treated cells relative to drug-untreated control)": 0.5},
      {"smiles": "Nc1nc2c(nc(-c3ccc(C(=O)NCCOCCOCCOCCOCCOCCCCCCCl)cc3)n2Cc2ccc(F)cc2)c(=O)[nH]1", "note": "[Example 3, 4-(2-Amino-9-(4-fluorobenzyl)-6-oxo-6,9-dihydro-1H-purin-8-yl)-N-(21-chloro-3,6,9,12,15-pentaoxahenicos-1-yl)benzamide]", "Activity value (GFP/actin of drug-treated cells relative to drug-untreated control)": 0.3},
      {"smiles": "Nc1nc2c(nc(C(=O)N3CCCCC3C(=O)NCCOCCOCCOCCOCCOCCCCCCCl)n2Cc2ccc(F)cc2)c(=O)[nH]1", "note": "(stereo not shown) [Example 46, 1-((2-Amino-9-(4-fluorobenzyl)-6-oxo-6,9-dihydro-1H-purin-8-yl)carbonyl)-N-(21-chloro-3,6,9,12,15-pentaoxahenicos-1-yl)piperidine-2-carboxamide]", "Activity value (GFP/actin of drug-treated cells relative to drug-untreated control)": 0.2},
      {"smiles": "COc1ccc(Cn2c(SC[C@H](NC(C)=O)C(=O)NCCOCCOCCOCCOCCOCCCCCCCl)nc3c(=O)[nH]c(N)nc32)cc1", "note": "[Example 38, N^2-acetyl-S-(2-amino-9-(4-methoxybenzyl)-6-oxo-6,9-dihydro-1H-purin-8-yl)-N-(21-chloro-3,6,9,12,15-pentaoxahenicos-1-yl)-L-cysteinamide]", "Activity value (GFP/actin of drug-treated cells relative to drug-untreated control)": 0.8}
    ]}
  ]
}
